# Reference: patent US8420100B2, “Tumor suppressor activating polypeptides and uses thereof” (Department of Biotechnology, priority 2006, dated 2013)
# Columns and labels:
# Type in all cases: cell-based
# [1] = tested on: p53-driven p21 promoter in HEK 293 (p53+/+) cells; assay: p21 luciferase reporter assay in HEK 293 (p53+/+) cells; details: 10 μM peptide, 12 h
# Experimental: (§1) TAT-SMAR1 WT peptide (P44) modulates p53 function: To examine whether P44 peptide could alone activate p53^−, luciferase reporter assays were performed following treatment of cells with the chimeric TAT-SMAR1 derived peptides. HEK 293 (p53^+/+) cells were transfected with p21 expression plasmid having luciferase reporter gene and K562 (p53^−/−) cells were co-transfected with p21 luciferase reporter and p53 constructs. […] (FIG. 2A, bar 3) and about 1.5 fold activation in p53^−/− cell line (FIG. 2B, bar 4).
# (§2) FIG. 2. P44 peptide activates the p53-driven p21 gene expression in reporter assays. p21 promoter activity was checked in both HEK 293 (p53^+/+) (A) and K562 (P53^−/−) cells (B). Cells were transfected with either pG13 […] reporter plasmid, a p53-driven p21 promoter, in HEK 293 cells or cotransfected with wild-type (wt) p53 in K562 cells. After 24 h post-transfection, cells were treated for 12 h with 10 μM concentration of various TAT-SMAR1 chimeric peptides. Y axis represents the fold luciferase activity (mean±SD of three independent experiments).
# (§3) Luciferase reporter assay: HEK 293 (p53^+/+) and K562 (p53^−/−) cells were grown in DMEM supplemented with 10% FBS in the presence of 5% CO2 at 37° C., a total number of 1×10^6, cells were plated on a 6-well plate. After 24 h, cells were transiently transfected using lipofectamine-2000 with either 1 μg of p21 expression plasmid having luciferase reporter gene or 5 μg p21 luciferase along with wt p53 construct in K562 cell line. Two micrograms of pRL-CMV (Renilla luciferase reporter plasmid) was included in all transfections to normalize the transfection efficiency. Thirty six hours post-transfection, cells were treated with 10 μM of either P44 peptide or its various mutants. The cells were harvested 12 h post-treatment, washed with PBS and lysed in 1× Passive lysis buffer (Promega). After three freeze-thaw cycles, cells were spun at 10,000 rpm at 4° C. for 20 min. The supernatants were collected and protein concentrations were estimated spectrophotometrically using Bradford reagent as (BioRad, CA). According to the manufacturer's instructions, luciferase activity was assessed using the dual luciferase assay reporter kit (Promega). The luciferase activity was measured by using Fluoroskan Ascent Luminometer (Labsystems). For all the luciferase assays, the data shown are the mean+SD of three independent experiments.
# [2] = tested on: p53-driven p21 promoter in K562 (p53-/-) cells; assay: p21 luciferase reporter assay in K562 (p53-/-) cells; details: 10 μM peptide; for activation of p53 (p21 promoter driven luciferase activity): K562 (p53-/-) co-transfected with p21 luciferase reporter and p53 constructs, 12 h
# Experimental: as §1, §2, §3
# [3] = target: T1, p53 (serine-15 phosphorylation) (Homo sapiens, UniProt P04637); assay: Western blotting for total p53 and phospho serine-15 p53 in peptide-treated HEK 293 cells; details: for p53 activation (pSer-15 p53 level): HEK 293, 10 μM peptide, 12 h (FIG. 4A)
# T1 construct: HEK 293 (p53^+/+) cells; endogenous in cells; host or cells: HEK 293
# Experimental: P44 peptide controls the activity of cell cycle regulatory proteins: The minimal dose of P44 peptide that was functionally effective in activating p53 was evaluated by incubating HEK 293 cells with varying concentrations of P44 peptide (1-100 μM) (FIG. 3A) and after 12 h of incubation, protein lysates were prepared and processed for immunoblotting with total p53 (DO-1) and p53 ser-15 phospho-specific antibodies. […] However, there was a 4.5-fold increase in the expression of phosphorylated p53 (pSerine-15 p53) in P44 peptide-treated cells (FIG. 3A, lanes 2-6). To exclude the possibility that p53 activation is an effect of the protein transduction domain of HIV-1 TAT protein, similar set of experiment was performed using TAT-PTD peptide alone (consisting of only the 11-mer TAT-sequence). […] This observation reconfirmed that the RS domain (288-350 aa) of SMAR1 could exclusively activate p53 by mediating its phosphorylation specifically at serine-15 residue. Serine-15 phosphorylation of p53 is associated with its increased transcription efficiency, decreased affinity for MDM2, and its increased nuclear retention. One of the target genes activated by p53 is p21, an inhibitor of a subset of the cyclin-dependent kinases including cdc-2 (Sherr, C. J., and Roberts, J. M. (1999) Genes Dev. 13, 1501-1512). To evaluate the significance of peptide-mediated p53 activation, P44 peptide-treated lysates were further checked for tyrosine 15 phosphorylation of cdc2. […] HEK 293 cells were treated with SM peptide and checked for p53 as well as pcdc-2 levels.
# Serine 347 residue of SMAR1: critical for mediating the effects of full-length SMAR1: Once it was established that the serine motif (SSSSYS) plays a pivotal role in SMAR1-mediated p53 activation, it got necessary to identify the serine residue within this motif that might be necessary in mediating these effects. To identify the critical serine residue within P44 peptide, various point-mutant peptides were custom synthesized, that varied with respect to the position of serine residue that was mutated (Table 1). To evaluate the functionality of mutant chimeric TAT-SMAR1 peptides [PS347A, PS348A, PS349A, PS350A and RS mutant (SM)] in comparison to the TAT-SMAR1 WT peptide (P44), HEK 293 cells were treated with 10 μM concentration of either of the peptides and protein lysates were prepared after 12 h incubation period. The lysates were then processed for immunoblotting with pSer-15 p53 and pcdc-2 antibodies. […] However, this was not the case with other mutated peptides. When the alanine was replaced back to serine at the 347 residue (FIG. 4A, lanes 3-5), the functionality of the peptide was restored as observed with increase in pcdc-2 levels. […] However, in case of SM (where serine residues from 347-350 were replaced by alanines) treated cells (FIG. 4A, lane 7), there was no difference in the pSer-15 p53 as well as pcdc-2 levels compared to either untreated or PS347A treated cells (FIG. 4A, lanes 1 and 2, respectively).
# FIG. 3. P44 peptide activates p53-mediated cell cycle pathway. A, HEK 293 cells were seeded at a density of 5×10^5 and after 24 h, was incubated with increasing concentrations of the TAT-SMAR1 WT (P44) peptide. Protein lysates were prepared and then immunoblotted with antibodies to total p53, phospho serine-15. B, The same set of experiment was repeated with TAT PTD peptide representing the PTD carrier sequence alone and immunoblotted with phospho serine-15, in comparison of P44 treated cells. C, The status of phospho cdc-2 was further analyzed in P44 peptide treated cells. Total […] was used as an internal control. D, The same set of experiments were again repeated using TAT-SMAR1 RS mutant (SM) peptide and whole cell lysates were probed for phospho p53 serine-15 and pcdc-2 antibodies. […] was used as a loading control.
# FIG. 4. Serine 347 residue of SMAR1 mediates p53 activation and stabilization. […]
# T1 sequence (P04637 whole entry): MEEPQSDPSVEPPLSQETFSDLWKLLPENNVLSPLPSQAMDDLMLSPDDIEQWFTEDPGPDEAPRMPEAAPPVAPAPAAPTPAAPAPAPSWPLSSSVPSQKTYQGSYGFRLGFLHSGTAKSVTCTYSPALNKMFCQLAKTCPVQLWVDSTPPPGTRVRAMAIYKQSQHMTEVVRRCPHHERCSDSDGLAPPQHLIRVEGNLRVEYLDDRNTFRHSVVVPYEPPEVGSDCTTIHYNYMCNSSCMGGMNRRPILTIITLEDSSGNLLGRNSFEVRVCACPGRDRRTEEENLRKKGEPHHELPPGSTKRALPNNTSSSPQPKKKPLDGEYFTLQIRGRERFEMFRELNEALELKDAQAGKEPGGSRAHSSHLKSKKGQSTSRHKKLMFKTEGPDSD
Sequence,activation of p53 (p21 promoter driven luciferase activity) [1],activation of p53 (p21 promoter driven luciferase activity) [2],p53 activation (pSer-15 p53 level) [3],"expression level of p53 phospho-serine 15 compared to untreated cells ([3]; HEK 293, SM peptide-treated lysates (FIG. 3D))",p21 promoter luciferase activity with peptide alone ([2]; K562 (p53-/-) cells without p53 construct),"increase in expression of phosphorylated p53 (pSerine-15 p53) ([3]; HEK 293, P44 1-100 μM, 12 h) [fold]","total p53 expression (DO-1) ([3]; HEK 293, P44 1-100 μM, 12 h)"
"YGRKKRRQRRRTAWRRKQRGQSLAVKSFSRRTPAAAAYSASETM [SM, P44 mutant where serine residues from 347-350 were replaced by alanines]",complete loss,complete loss,no difference,no increase,,,
"YGRKKRRQRRRTAWRRKQRGQSLAVKSFSRRTPSSSSYSASETM [P44, 33 mer SMAR1 peptide (residues 324-357) conjugated with 11-mer TAT-PTD]",2 fold,about 1.5 fold,,,no activity,4.5,slight increase
"YGRKKRRQRRRTAWRRKQRGQSLAVKSFSRRTPSSASYSASETM [PS349A, point mutant of P44, serine 349 replaced by alanine]",No significant alteration,No significant alteration,No significant decrease,,,,
"YGRKKRRQRRRTAWRRKQRGQSLAVKSFSRRTPASSSYSASETM [PS347A, point mutant of P44, serine 347 replaced by alanine]",complete loss,complete loss,no significant activation,,,,
"YGRKKRRQRRRTAWRRKQRGQSLAVKSFSRRTPSASSYSASETM [PS348A, point mutant of P44, serine 348 replaced by alanine]",No significant alteration,No significant alteration,No significant decrease,,,,
"YGRKKRRQRRRTAWRRKQRGQSLAVKSFSRRTPSSSAYSASETM [PS350A, point mutant of P44, serine 350 replaced by alanine]",No significant alteration,No significant alteration,No significant decrease,,,,
